Experimental data from US10766928B2, “Targeted conformationally-constrained kinked endosomal disrupting peptides” (priority 2012, dated 2020).
Converted amounts (≈) assume the structure as drawn. Non-standard residues stand in square brackets, D forms with d. Residues, ends and D or L forms follow the SMILES beside them. *: point of attachment. Pentanoyl(5-NH-cholesteryl) = CC(C)CCC[C@@H](C)[C@H]1CC[C@H]2[C@@H]3CC=C4C[C@@H](NCCCCC(=O)*)CC[C@]4(C)[C@H]3CC[C@]12C; PEG3 = NCCOCCOCCOCCC(=O)O; Aib = CC(C)(N)C(=O)O; Ahx = NCCCCCC(=O)O; βAla = NCCC(=O)O

Experiments:
Jurkat lymphocytes = details: 48 h
Procedure: (§1) The effects of the compounds of the invention on human Juikat leukemia cells were evaluated using flow cytometry-based assays of potency, efficacy, and toxicity. […] Analysis of flow cytometry data by non-linear regression was used to determine IC50 values for potency with the efficacy expressed as a percentage. […] Dose-dependent effects on cellular viability after 48 h at 37° C. in culture were also measured by flow cytometry.
(§2) The # represents the compound number in accordance with Tables A, B, and C. Concentrations of compound stock solutions were determined by absorbance measurements at 280 nm. Efficacy was determined as % change in cellular fluorescence relative to the maximal response of Compound 1, defined as 100%. Potencies and efficacies in Jurkat lymphocytes were measured by flow cytometry after treatment of cells with the compounds listed and the fluorescent probe Compound 2 (2.5 μM) for 14 hours. Toxicity to this cell line was determined by flow cytometry analysis of light scattering and counterstaining with PI after treatment for 48 h at 37° C. in culture. […] N.D., not determined.

[1] = system: endosomes of Jurkat lymphocytes; experiment: Endosome disruption in Jurkat lymphocytes: release of carboxyfluorescein from disulfide probe Compound 2, flow cytometry; details: 14 h
Procedure: as §1, §2
Cells were treated with fluorescent molecular probe Compound 2 (2.5 μM) and endosome disruptors for 14 hours at 37° C. Enhanced cellular fluorescence resulting from release of the pH-sensitive fluorophore Compound 3 into the cytoplasm was quantified by flow cytometry.
Natural amino acids are represented by single letter codes. Codes for non-standard elements are as follows: Ch1: (3β-Cholest-5-en-3-yl-ammonio)pentanoyl; Ch2: (Cholester-3-yl)oxy-βAla-βAla; X: ε-Ahx; U: Aib; PB: Pacific Blue fluorophore. O: 3-(2-(2-(2-aminoethoxy)ethoxy)ethoxy)propanyl.

[2] = Thermodynamic solubility in PBS (pH 7.4); assay type: physicochemical; details: phosphate buffered saline, pH 7.4, Table 1; PBS pH 7.4, 24 hours at 22° C., ±S.D.; read-out: Solubility (aq.)
Source text: Values in parentheses represent 95% confidence intervals. N.D., not determined.
Measurements represent duplicate or more replicates, with active peptides subjected to multiple replicates. ND: not determined. The peptide was non-toxic and soluble in cell culture medium at this concentration.

Row | Structure (SMILES) | IC50 (Jurkat lymphocytes) | EC50 [1] | solubility thermodynamic at 24 h [2]
1 | CC(C)CCC[C@@H](C)[C@H]1CC[C@H]2[C@@H]3CC=C4C[C@@H](NCCCCC(=O)N[C@@H](CCC(=O)O)C(=O)N[C@@H](CCC(=O)O)C(=O)NCCCCCC(=O)NCCCCCC(=O)N[C@@H](C)C(=O)N[C@@H](C)C(=O)N[C@@H](C)C(=O)N[C@@H](Cc5c[nH]c6ccccc56)C(=O)N[C@@H](Cc5c[nH]c6ccccc56)C(=O)N[C@@H](C)C(=O)N[C@@H](Cc5ccc(O)cc5)C(=O)N[C@@H](Cc5c[nH]c6ccccc56)C(=O)N5CCC[C@H]5C(=O)N5CCC[C@H]5C(=O)N[C@H](C(=O)N[C@@H](C)C(N)=O)C(C)C)CC[C@]4(C)[C@H]3CC[C@]12C [Compound 5, R = EEXXAAAWWAYWPPVA-CONH2] ({Pentanoyl(5-NH-cholesteryl)}-EE[Ahx][Ahx]AAAWWAYWPPVA-NH2) | 14 µM | 0.4 µM | 10 ± 1 µM (≈ 23.4 µg/mL)
2 | CC(C)CCC[C@@H](C)[C@H]1CC[C@H]2[C@@H]3CC=C4C[C@@H](NCCCCC(=O)NCCC(=O)N[C@@H](CCC(=O)O)C(=O)N[C@@H](CCC(=O)O)C(=O)NCCCCCC(=O)NC(C)(C)C(=O)NC(C)(C)C(=O)NC(C)(C)C(=O)N[C@@H](Cc5c[nH]c6ccccc56)C(=O)N[C@@H](Cc5c[nH]c6ccccc56)C(=O)N[C@@H](C)C(=O)N[C@@H](Cc5ccc(O)cc5)C(=O)N[C@@H](Cc5c[nH]c6ccccc56)C(=O)N5CCC[C@H]5C(=O)N5CCC[C@H]5C(=O)N[C@H](C(=O)N[C@@H](C)C(N)=O)C(C)C)CC[C@]4(C)[C@H]3CC[C@]12C [Compound 9, R = BEEXUUUWWAYWPPVA-CONH2] ({Pentanoyl(5-NH-cholesteryl)-βAla}-EE[Ahx][Aib][Aib][Aib]WWAYWPPVA-NH2) | 11 µM | 0.4 µM | 12 ± 1 µM (≈ 28.1 µg/mL)
3 | CC(C)CCC[C@@H](C)[C@H]1CC[C@H]2[C@@H]3CC=C4C[C@@H](NCCCCC(=O)NCCC(=O)N[C@@H](CCC(=O)O)C(=O)N[C@@H](CCC(=O)O)C(=O)NCCCCCC(=O)NC(C)(C)C(=O)NC(C)(C)C(=O)NC(C)(C)C(=O)NC(C)(C)C(=O)N[C@@H](Cc5c[nH]c6ccccc56)C(=O)N[C@@H](Cc5c[nH]c6ccccc56)C(=O)N[C@@H](C)C(=O)N[C@@H](Cc5ccc(O)cc5)C(=O)N[C@@H](Cc5c[nH]c6ccccc56)C(=O)N5CCC[C@H]5C(=O)N5CCC[C@H]5C(=O)N[C@H](C(=O)N[C@@H](C)C(N)=O)C(C)C)CC[C@]4(C)[C@H]3CC[C@]12C [Compound 20, R = BEEXUUUUWWAYWPPVA-CONH2] ({Pentanoyl(5-NH-cholesteryl)-βAla}-EE[Ahx][Aib][Aib][Aib][Aib]WWAYWPPVA-NH2) | 15 µM | 0.1 µM | –
4 | CC(C)CCC[C@@H](C)[C@H]1CC[C@H]2[C@@H]3CC=C4C[C@@H](NCCCCC(=O)NCCC(=O)N[C@@H](CCC(=O)O)C(=O)N[C@@H](CCC(=O)O)C(=O)NCCCCCC(=O)NCCCCCC(=O)NC(C)(C)C(=O)NC(C)(C)C(=O)NC(C)(C)C(=O)NC(C)(C)C(=O)N[C@@H](Cc5c[nH]c6ccccc56)C(=O)N[C@@H](Cc5c[nH]c6ccccc56)C(=O)N[C@@H](C)C(=O)N[C@@H](Cc5ccc(O)cc5)C(=O)N[C@@H](Cc5c[nH]c6ccccc56)C(=O)N5CCC[C@H]5C(=O)N5CCC[C@H]5C(=O)N[C@H](C(=O)N[C@@H](C)C(N)=O)C(C)C)CC[C@]4(C)[C@H]3CC[C@]12C [Compound 21, R = BEEXXUUUUWWAYWPPVA-CONH2] ({Pentanoyl(5-NH-cholesteryl)-βAla}-EE[Ahx][Ahx][Aib][Aib][Aib][Aib]WWAYWPPVA-NH2) | 9 µM | 0.1 µM | –
5 | CC(C)CCC[C@@H](C)[C@H]1CC[C@H]2[C@@H]3CC=C4C[C@@H](NCCCCC(=O)NCCC(=O)N[C@@H](CCC(=O)O)C(=O)N[C@@H](CCC(=O)O)C(=O)NCCCCCC(=O)NCCCCCC(=O)NC(C)(C)C(=O)NC(C)(C)C(=O)NC(C)(C)C(=O)NC(C)(C)C(=O)N[C@@H](Cc5ccc(O)cc5)C(=O)N[C@@H](Cc5ccc(O)cc5)C(=O)N[C@@H](C)C(=O)N[C@@H](Cc5ccc(O)cc5)C(=O)N[C@@H](Cc5ccc(O)cc5)C(=O)N5CCC[C@H]5C(=O)N5CCC[C@H]5C(=O)N[C@H](C(=O)N[C@@H](C)C(N)=O)C(C)C)CC[C@]4(C)[C@H]3CC[C@]12C [Compound 23, R = BEEXXUUUUYYAYYPPVA-CONH2] ({Pentanoyl(5-NH-cholesteryl)-βAla}-EE[Ahx][Ahx][Aib][Aib][Aib][Aib]YYAYYPPVA-NH2) | 4 µM | 0.1 µM | –
6 | CC(C)CCC[C@@H](C)[C@H]1CC[C@H]2[C@@H]3CC=C4C[C@@H](NCCCCC(=O)NCCC(=O)N[C@@H](CCC(=O)O)C(=O)N[C@@H](CCC(=O)O)C(=O)NCCCCCC(=O)NCCCCCC(=O)NC(C)(C)C(=O)NC(C)(C)C(=O)NC(C)(C)C(=O)NC(C)(C)C(=O)N[C@@H](Cc5ccc(O)cc5)C(=O)N[C@@H](Cc5ccc(O)cc5)C(=O)N[C@@H](Cc5ccc(O)cc5)C(=O)N[C@@H](Cc5ccc(O)cc5)C(=O)N[C@@H](Cc5ccc(O)cc5)C(=O)N5CCC[C@H]5C(=O)N5CCC[C@H]5C(=O)N[C@H](C(=O)N[C@@H](C)C(N)=O)C(C)C)CC[C@]4(C)[C@H]3CC[C@]12C [Compound 24, R = BEEXXUUUUYYYYYPPVA-CONH2] ({Pentanoyl(5-NH-cholesteryl)-βAla}-EE[Ahx][Ahx][Aib][Aib][Aib][Aib]YYYYYPPVA-NH2) | 5 µM | 0.09 µM | –
7 | CC(C)CCC[C@@H](C)[C@H]1CC[C@H]2[C@@H]3CC=C4C[C@@H](NCCCCC(=O)NCCC(=O)N[C@@H](CCC(=O)O)C(=O)N[C@@H](CCC(=O)O)C(=O)NCCCCCC(=O)NCCCCCC(=O)NC(C)(C)C(=O)NC(C)(C)C(=O)NC(C)(C)C(=O)NC(C)(C)C(=O)N[C@@H](Cc5ccc(O)cc5)C(=O)N[C@@H](Cc5ccc(O)cc5)C(=O)N[C@@H](C)C(=O)N[C@@H](Cc5ccc(O)cc5)C(=O)N[C@@H](Cc5ccc(O)cc5)C(=O)N5CCC[C@H]5C(=O)N5CCC[C@H]5C(=O)N[C@H](C(=O)N[C@H](C(N)=O)C(C)C)C(C)C)CC[C@]4(C)[C@H]3CC[C@]12C [Compound 25, R = BEEXXUUUUYYAYYPPVV-CONH2] ({Pentanoyl(5-NH-cholesteryl)-βAla}-EE[Ahx][Ahx][Aib][Aib][Aib][Aib]YYAYYPPVV-NH2) | 9 µM | 0.09 µM | 22 ± 1 µM (≈ 54.9 µg/mL)
8 | CC(C)CCC[C@@H](C)[C@H]1CC[C@H]2[C@@H]3CC=C4C[C@@H](NCCCCC(=O)NCCC(=O)N[C@@H](CCC(=O)O)C(=O)N[C@@H](CCC(=O)O)C(=O)NCCOCCOCCOCCC(=O)NCCOCCOCCOCCC(=O)NC(C)(C)C(=O)NC(C)(C)C(=O)NC(C)(C)C(=O)NC(C)(C)C(=O)N[C@@H](Cc5c[nH]c6ccccc56)C(=O)N[C@@H](Cc5c[nH]c6ccccc56)C(=O)N[C@@H](C)C(=O)N[C@@H](Cc5ccc(O)cc5)C(=O)N[C@@H](Cc5c[nH]c6ccccc56)C(=O)N5CCC[C@H]5C(=O)N5CCC[C@H]5C(=O)N[C@H](C(=O)N[C@@H](C)C(=O)N[C@@H](C)C(N)=O)C(C)C)CC[C@]4(C)[C@H]3CC[C@]12C [Compound 27, R = BEEOOUUUUWWAYWPPVAA-CONH2] ({Pentanoyl(5-NH-cholesteryl)-βAla}-EE[PEG3][PEG3][Aib][Aib][Aib][Aib]WWAYWPPVAA-NH2) | 3 µM | 0.2 µM | –
